From patent US10266537B2, “3-acetylenyl-pyrazole-pyrimidine derivative, and preparation method therefor and uses thereof” (Si Chuan University, priority 2015, dated 2019)

How the values were obtained:
[1] = biological target: Abl(T315I) (Homo sapiens (Human), UniProt P00519, T315I); assay: Kinase inhibition assay (KinaseProfiler, 33P-ATP); type: biochemical; settings: Abl(T315I)(h); compound at 10 μM; read-out: The percentage of the remaining active protein
[2] = biological target: Yes (Homo sapiens (Human), UniProt P07947); assay: Kinase inhibition assay (KinaseProfiler, 33P-ATP); type: biochemical; settings: for IC50: Yes, ATP at Km
[3] = biological target: Fyn (Homo sapiens (Human), UniProt P06241); assay: Kinase inhibition assay (KinaseProfiler, 33P-ATP); type: biochemical; settings: Fyn(h); compound at 10 μM; read-out: The percentage of the remaining active protein
[4] = biological target: FGFR1 (Homo sapiens (Human), UniProt P11362); assay: Kinase inhibition assay (KinaseProfiler, 33P-ATP); type: biochemical; settings: FGFR1(h); compound at 10 μM; read-out: The percentage of the remaining active protein
[5] = biological target: EphB4 (Homo sapiens (Human), UniProt P54760); assay: Kinase inhibition assay (KinaseProfiler, 33P-ATP); type: biochemical; settings: for remaining activity at 10 µM: EphB4(h), compound at 10 μM, read-out: The percentage of the remaining active protein
[6] = biological target: DDR2 (Homo sapiens (Human), UniProt Q16832); assay: Kinase inhibition assay (KinaseProfiler, 33P-ATP); type: biochemical; settings: DDR2(h); compound at 10 μM; read-out: The percentage of the remaining active protein
[7] = biological target: TrkA (Homo sapiens (Human), UniProt P04629); assay: Kinase inhibition assay (KinaseProfiler, 33P-ATP); type: biochemical; settings: for IC50: TrkA, ATP at Km
[8] = biological target: Hck (Homo sapiens (Human), UniProt P08631); assay: Kinase inhibition assay (KinaseProfiler, 33P-ATP); type: biochemical; settings: Hck(h); compound at 10 μM; read-out: The percentage of the remaining active protein
[9] = biological target: Lyn (Homo sapiens (Human), UniProt P07948); assay: Kinase inhibition assay (KinaseProfiler, 33P-ATP); type: biochemical; settings: Lyn(h); compound at 10 μM; read-out: The percentage of the remaining active protein
[10] = biological target: Ret (Homo sapiens (Human), UniProt P07949); assay: Kinase inhibition assay (KinaseProfiler, 33P-ATP); type: biochemical; settings: Ret(h); compound at 10 μM; read-out: The percentage of the remaining active protein
[11] = biological target: cKit(h) (Homo sapiens (Human), UniProt P10721); assay: Kinase inhibition assay (KinaseProfiler, 33P-ATP); type: biochemical; settings: compound at 10 μM, read-out: The percentage of the remaining active protein
[12] = biological target: cSRC(h) (Homo sapiens (Human), UniProt P12931); assay: Kinase inhibition assay (KinaseProfiler, 33P-ATP); type: biochemical; settings: compound at 10 μM, read-out: The percentage of the remaining active protein
[13] = biological target: Flt3(h) (Homo sapiens (Human), UniProt P36888); assay: Kinase inhibition assay (KinaseProfiler, 33P-ATP); type: biochemical; settings: compound at 10 μM, read-out: The percentage of the remaining active protein
[14] = biological target: Met(h) (Homo sapiens (Human), UniProt P08581); assay: Kinase inhibition assay (KinaseProfiler, 33P-ATP); type: biochemical; settings: compound at 10 μM, read-out: The percentage of the remaining active protein
[15] = biological target: mTOR(h) (Homo sapiens (Human), UniProt P42345); assay: Kinase inhibition assay (KinaseProfiler, 33P-ATP); type: biochemical; settings: compound at 10 μM, read-out: The percentage of the remaining active protein
[16] = biological target: ULK3(h) (Homo sapiens (Human), UniProt Q6PHR2); assay: Kinase inhibition assay (KinaseProfiler, 33P-ATP); type: biochemical; settings: compound at 10 μM, read-out: The percentage of the remaining active protein
[17] = tested on: MDA-MB-231; assay: Cell proliferation inhibition assay (MTT); type: cell-based, human; settings: Homo sapiens, MDA-MB-231, 72 h, read-out: Proliferative inhibitory activity MDA-MB-231 (IC50 class)
Procedure: The remaining cell lines were cultured in DMEM complete medium containing 10% fetal bovine serum (MV4-11 cells 20%), 100 U/ml penicillin, 100 μg/mL streptomycin at 5% CO2, and 37° C.
The cells were seeded in 96-well plates with 200 μL of cell suspension per well and incubated overnight in a cell culture medium with a cell concentration of 1˜2×10^4 cells/mL. The next day, the supernatant was discarded (the suspension cell was centrifuged before it) and the cells were treated with gradient concentrations of the test compound, respectively. At the same time, the drug-free negative control group and the equal volume of solvent control group, DMSO concentration of 0.1%, each dose group set up three wells, 37° C., 5% CO2 conditions. After 72 hours, add 20 μL of MTT reagent at a concentration of 5 mg/mL per well. After incubation for 2-4 h, the supernatant was discarded and 150 μL of DMSO was added to each well. […] Determine the absorbance (A) value (λ=570 nm, A value is proportional to the number of living cells), whichever is the average. […] The experiment was repeated at least 3 times. Experimental data were expressed as mean, data statistics using t test, P<0.05 for the difference was statistically significant. The inhibitory effects of the following compounds on cell proliferation were expressed as IC50 or inhibition rates.

[18] = tested on: MDA-MB-435; assay: Cell proliferation inhibition assay (MTT); type: cell-based, human; settings: Homo sapiens, MDA-MB-435, 72 h, read-out: Proliferative inhibitory activity MDA-MB-435 (IC50 class)

Chain of TrkA (P04629 33-796): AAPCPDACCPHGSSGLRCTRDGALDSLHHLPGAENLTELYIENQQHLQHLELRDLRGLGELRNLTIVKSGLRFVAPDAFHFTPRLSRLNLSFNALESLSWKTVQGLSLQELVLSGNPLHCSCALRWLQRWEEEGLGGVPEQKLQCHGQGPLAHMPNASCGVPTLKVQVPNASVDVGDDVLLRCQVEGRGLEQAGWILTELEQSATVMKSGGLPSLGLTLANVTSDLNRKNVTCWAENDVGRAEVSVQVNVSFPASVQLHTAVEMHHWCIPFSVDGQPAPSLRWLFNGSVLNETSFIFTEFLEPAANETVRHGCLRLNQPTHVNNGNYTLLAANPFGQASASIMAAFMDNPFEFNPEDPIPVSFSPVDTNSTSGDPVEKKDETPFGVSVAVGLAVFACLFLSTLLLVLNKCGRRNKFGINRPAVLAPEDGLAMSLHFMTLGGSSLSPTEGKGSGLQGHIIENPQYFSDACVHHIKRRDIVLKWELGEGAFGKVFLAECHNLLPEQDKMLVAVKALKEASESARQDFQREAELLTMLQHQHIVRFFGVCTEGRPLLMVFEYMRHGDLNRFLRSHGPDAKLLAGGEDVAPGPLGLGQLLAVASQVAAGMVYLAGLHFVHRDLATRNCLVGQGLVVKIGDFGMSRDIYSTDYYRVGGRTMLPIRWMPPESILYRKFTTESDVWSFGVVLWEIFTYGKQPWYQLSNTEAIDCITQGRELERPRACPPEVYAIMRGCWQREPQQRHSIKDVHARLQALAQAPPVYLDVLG
Chain of EphB4 (P54760 16-987): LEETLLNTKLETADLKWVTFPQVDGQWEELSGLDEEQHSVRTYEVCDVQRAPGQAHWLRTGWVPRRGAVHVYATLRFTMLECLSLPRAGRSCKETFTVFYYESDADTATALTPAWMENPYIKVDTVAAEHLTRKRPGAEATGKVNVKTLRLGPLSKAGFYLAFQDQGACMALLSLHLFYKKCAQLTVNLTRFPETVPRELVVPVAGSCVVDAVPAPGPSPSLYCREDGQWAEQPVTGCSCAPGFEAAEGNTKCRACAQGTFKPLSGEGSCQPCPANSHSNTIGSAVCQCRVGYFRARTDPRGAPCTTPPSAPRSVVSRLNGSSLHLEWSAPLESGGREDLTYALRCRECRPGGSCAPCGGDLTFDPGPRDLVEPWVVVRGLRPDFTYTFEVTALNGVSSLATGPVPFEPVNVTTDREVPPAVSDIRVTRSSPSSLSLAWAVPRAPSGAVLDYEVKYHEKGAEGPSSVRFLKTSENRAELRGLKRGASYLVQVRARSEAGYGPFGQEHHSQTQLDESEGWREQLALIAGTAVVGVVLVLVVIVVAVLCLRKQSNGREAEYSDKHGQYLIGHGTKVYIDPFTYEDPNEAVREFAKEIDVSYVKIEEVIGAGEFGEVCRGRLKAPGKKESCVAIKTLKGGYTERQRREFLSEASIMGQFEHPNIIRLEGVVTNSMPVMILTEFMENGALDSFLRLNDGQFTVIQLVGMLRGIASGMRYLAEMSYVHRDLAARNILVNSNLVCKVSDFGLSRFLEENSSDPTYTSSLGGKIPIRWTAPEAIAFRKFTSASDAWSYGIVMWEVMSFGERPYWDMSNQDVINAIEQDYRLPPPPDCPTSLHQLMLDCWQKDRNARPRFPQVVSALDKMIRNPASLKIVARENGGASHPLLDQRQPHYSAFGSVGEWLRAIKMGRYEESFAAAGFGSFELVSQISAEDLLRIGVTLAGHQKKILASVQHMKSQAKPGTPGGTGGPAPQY
Chain of Yes (P07947 whole entry): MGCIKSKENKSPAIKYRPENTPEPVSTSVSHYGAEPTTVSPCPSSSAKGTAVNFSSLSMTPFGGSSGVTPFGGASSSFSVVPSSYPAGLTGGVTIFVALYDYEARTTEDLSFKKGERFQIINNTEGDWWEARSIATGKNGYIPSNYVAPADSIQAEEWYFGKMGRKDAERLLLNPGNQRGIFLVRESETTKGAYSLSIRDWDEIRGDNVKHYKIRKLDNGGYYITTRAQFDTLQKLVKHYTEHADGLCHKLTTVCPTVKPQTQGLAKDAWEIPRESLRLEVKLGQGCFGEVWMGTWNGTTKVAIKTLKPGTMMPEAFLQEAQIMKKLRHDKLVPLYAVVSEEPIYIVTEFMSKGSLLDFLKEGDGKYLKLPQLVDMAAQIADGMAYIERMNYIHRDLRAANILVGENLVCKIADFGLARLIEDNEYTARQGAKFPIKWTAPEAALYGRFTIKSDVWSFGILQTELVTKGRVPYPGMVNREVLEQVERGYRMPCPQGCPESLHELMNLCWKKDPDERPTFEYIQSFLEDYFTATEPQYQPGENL
Chain of cKit(h) (P10721 26-976): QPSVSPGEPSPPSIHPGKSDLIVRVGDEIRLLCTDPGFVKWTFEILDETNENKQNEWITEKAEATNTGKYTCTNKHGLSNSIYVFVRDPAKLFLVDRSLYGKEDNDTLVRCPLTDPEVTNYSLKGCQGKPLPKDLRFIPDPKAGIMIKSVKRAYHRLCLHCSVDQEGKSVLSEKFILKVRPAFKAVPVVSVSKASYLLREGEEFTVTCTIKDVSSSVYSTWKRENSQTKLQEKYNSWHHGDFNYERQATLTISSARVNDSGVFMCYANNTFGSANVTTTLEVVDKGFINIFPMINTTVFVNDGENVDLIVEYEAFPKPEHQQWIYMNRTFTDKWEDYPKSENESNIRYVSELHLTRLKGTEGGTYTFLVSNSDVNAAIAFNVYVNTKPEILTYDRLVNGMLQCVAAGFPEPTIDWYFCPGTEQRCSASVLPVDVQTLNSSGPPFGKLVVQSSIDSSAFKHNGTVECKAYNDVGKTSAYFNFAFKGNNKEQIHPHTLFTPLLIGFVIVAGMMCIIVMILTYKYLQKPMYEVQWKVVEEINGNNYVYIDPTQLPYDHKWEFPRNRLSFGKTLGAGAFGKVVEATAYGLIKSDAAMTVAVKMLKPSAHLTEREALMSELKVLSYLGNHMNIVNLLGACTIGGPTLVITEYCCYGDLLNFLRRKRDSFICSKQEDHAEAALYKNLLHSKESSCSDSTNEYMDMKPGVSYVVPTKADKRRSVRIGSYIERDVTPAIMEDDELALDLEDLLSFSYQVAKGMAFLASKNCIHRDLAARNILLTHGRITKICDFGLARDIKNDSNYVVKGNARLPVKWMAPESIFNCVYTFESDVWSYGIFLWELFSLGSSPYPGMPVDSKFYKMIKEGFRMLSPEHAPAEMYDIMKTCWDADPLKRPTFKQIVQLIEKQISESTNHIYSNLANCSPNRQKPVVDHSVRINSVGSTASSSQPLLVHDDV
Chain of DDR2 (Q16832 22-855): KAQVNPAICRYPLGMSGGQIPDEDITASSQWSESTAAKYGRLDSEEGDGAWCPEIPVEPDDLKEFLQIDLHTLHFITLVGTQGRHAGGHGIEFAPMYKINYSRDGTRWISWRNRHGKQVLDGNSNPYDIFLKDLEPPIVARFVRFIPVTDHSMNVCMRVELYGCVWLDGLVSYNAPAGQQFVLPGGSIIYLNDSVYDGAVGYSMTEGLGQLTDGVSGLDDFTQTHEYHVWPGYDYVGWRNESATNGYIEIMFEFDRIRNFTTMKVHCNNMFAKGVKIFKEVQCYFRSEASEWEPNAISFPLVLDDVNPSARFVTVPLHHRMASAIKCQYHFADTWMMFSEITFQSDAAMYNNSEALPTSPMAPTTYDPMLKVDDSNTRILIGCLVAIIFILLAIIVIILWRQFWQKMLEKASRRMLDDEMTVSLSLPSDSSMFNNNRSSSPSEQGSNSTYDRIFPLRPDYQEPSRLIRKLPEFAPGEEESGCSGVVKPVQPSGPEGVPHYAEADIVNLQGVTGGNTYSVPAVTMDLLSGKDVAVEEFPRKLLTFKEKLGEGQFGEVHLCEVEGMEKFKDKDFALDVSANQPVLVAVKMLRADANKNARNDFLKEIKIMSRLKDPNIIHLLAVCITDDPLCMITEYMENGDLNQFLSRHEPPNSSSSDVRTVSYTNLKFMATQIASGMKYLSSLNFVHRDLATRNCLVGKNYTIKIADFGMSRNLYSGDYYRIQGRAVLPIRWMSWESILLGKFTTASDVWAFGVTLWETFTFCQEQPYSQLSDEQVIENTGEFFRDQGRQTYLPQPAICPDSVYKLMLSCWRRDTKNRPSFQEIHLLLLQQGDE
Chain of Lyn (P07948 whole entry): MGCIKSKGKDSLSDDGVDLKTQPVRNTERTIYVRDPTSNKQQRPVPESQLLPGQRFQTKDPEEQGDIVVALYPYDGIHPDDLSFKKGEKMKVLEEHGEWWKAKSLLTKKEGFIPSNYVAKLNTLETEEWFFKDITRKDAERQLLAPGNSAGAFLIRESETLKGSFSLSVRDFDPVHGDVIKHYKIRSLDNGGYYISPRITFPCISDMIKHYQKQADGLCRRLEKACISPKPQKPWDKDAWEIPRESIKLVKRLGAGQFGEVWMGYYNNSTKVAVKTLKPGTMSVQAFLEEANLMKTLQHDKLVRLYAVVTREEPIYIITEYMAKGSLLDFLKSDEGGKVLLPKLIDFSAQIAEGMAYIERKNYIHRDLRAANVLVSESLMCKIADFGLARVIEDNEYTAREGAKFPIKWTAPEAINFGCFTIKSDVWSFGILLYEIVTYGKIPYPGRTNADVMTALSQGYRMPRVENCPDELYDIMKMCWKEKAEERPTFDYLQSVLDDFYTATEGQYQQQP
Chain of ULK3(h) (Q6PHR2 whole entry): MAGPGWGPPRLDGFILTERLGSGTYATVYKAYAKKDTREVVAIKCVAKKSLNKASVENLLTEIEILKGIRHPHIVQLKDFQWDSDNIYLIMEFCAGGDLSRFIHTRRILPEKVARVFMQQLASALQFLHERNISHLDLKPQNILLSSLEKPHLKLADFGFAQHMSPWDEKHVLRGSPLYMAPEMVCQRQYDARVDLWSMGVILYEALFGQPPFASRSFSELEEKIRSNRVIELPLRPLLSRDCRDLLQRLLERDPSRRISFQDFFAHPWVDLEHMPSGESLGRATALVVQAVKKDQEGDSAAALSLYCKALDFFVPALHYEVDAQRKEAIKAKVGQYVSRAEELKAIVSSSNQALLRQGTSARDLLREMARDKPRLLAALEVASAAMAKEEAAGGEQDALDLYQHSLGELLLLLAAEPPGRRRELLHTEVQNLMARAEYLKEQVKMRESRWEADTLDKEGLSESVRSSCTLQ

| SMILES | IC50 [2] [µM] | remaining activity at 10 µM [3] [%] | remaining activity at 10 µM [4] [%] | remaining activity at 10 µM [5] [%] | remaining activity at 10 µM [6] [%] | IC50 [7] [µM] | remaining activity at 10 µM [8] [%] | remaining activity at 10 µM [9] [%] | remaining activity at 10 µM [10] [%] | remaining activity at 10 µM [11] [%] | remaining activity at 10 µM [12] [%] | also measured |
| --- | --- | --- | --- | --- | --- | --- | --- | --- | --- | --- | --- | --- |
| Cc1ccc(C(=O)Nc2ccc(CN3CCN(C)CC3)c(C(F)(F)F)c2)cc1C#Cc1nn(C2CCNCC2)c2ncnc(N)c12 [Compound 120] | < 0.001 | 1 | -1 | -1 | 3 | 0.091 | -2 | -2 | -16 | 18 | 0 | remaining activity at 10 µM [1]: -1%; remaining activity at 10 µM ([2]; Yes(h), compound at 10 μM, read-out: The percentage of the remaining active protein): 0%; IC50 ([5]; EphB4, ATP at Km): 0.028 µM; remaining activity at 10 µM ([7]; TrkA(h), compound at 10 μM, read-out: The percentage of the remaining active protein): 0%; remaining activity at 10 µM [13]: 0%; remaining activity at 10 µM [14]: 81%; remaining activity at 10 µM [15]: 96%; remaining activity at 10 µM [16]: 1% |
| C=CC(=O)N1CCC(n2nc(C#Cc3cc(C(=O)Nc4ccc(CN5CCN(C)CC5)c(C(F)(F)F)c4)ccc3C)c3c(N)ncnc32)CC1 [Compound 121, 3-((1-(1-acryloyloxy-4-yl)-4-amino-1H-pyrazolo [3,4-d]pyrimidin-3-yl)ethynyl)-4-methyl-N-(4-((4-methylpiperazin-1-yl)methyl)-3-(trifluoromethyl)phenyl) benzamide] | 0.002 | -1 | -1 | 0 | 4 | 0.052 | 1 | 2 | -2 | 59 | 0 | IC50 [17]: < 0.1 µM; IC50 [18]: < 0.1 µM |
